29 compounds from ChEMBL document CHEMBL1150521, “2-NAP: a selective, hydrophilic, non-peptide CCKA - receptor antagonist derived from the cholecystokinin C-terminal dipeptide” (Bioorg Med Chem Lett, 1993) can be followed below.

Data set [1] in a line: Compound was evaluated for partition coefficient using chloroform/buffer at pH 7.4 and 254 nm. Format: physicochemical. To be noted: octanol/water.
The nature of data set [2]: Compound was evaluated for partition coefficient using chloroform/buffer at pH 7.4 and 280 nm. Format: physicochemical. Conditions: octanol/water.
In data set [3] the target is T1, Cholecystokinin receptor type A (Cavia porcellus) (UniProt Q63931).
T1 sequence (whole entry): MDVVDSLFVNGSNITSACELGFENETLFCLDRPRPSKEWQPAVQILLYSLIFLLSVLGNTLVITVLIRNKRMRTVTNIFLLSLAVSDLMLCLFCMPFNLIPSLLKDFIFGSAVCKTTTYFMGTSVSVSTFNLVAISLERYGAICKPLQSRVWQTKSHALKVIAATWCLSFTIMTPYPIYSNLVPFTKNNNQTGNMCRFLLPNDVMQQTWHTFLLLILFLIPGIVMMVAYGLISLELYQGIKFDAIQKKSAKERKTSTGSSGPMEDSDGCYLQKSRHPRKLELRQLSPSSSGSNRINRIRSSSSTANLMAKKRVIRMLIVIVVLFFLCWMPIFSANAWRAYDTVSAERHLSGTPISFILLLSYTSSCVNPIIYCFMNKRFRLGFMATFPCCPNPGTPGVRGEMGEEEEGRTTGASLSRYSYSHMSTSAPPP
The experiment in a line: Binding affinity for Cholecystokinin type A receptor in Guinea-Pig gall bladder. It counts as tissue-based.

The target in data set [4] is T1, Cholecystokinin receptor type A (Cavia porcellus). The experiment in a line: Affinity at Cholecystokinin type A receptor in guinea pig gall bladder; inactive at the limits of solubility, usually 10e-4 M. Format: tissue-based.
Data set [5] has the same target. The data set can be described thus: Compound was evaluated for its affinity at Cholecystokinin type A receptor in Guinea-Pig gallbladder.
Data set [6] addresses T2, Gastrin/cholecystokinin type B receptor (Mus musculus) (UniProt P56481).
T2 sequence (whole entry): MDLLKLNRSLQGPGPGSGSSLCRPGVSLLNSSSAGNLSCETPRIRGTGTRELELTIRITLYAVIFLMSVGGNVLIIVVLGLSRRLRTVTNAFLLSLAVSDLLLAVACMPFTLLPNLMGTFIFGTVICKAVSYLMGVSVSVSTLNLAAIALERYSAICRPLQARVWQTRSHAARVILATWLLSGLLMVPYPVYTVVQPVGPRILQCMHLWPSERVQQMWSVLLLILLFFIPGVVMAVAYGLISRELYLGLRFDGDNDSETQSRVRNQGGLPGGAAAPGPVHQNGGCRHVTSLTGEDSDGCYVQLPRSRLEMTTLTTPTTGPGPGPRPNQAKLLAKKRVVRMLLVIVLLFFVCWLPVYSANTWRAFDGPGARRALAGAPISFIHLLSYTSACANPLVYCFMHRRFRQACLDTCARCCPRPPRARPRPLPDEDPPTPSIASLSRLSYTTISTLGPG
The data set can be described thus: Maximum acid secretion obtained at 10e -5 M: values expressed as percentage of the maximum response to pentagastrin (n=4/6) in mouse stomach at CCKB/Gastrin receptor; inactive at the limits of solubility, usually 10e-4 M. Format: functional, tissue-based.

In data set [7] the target is T2, Gastrin/cholecystokinin type B receptor (Mus musculus). The experiment in a line: Efficiency against CCKB/Gastrin receptor for stimulation of gastric acid secretion in lumen-perfused mouse stomach: activity measured as midpoint agonist concentration-effect curve parameter; inactive at the limits of solubility, u sually 10e-4M. Format: functional, tissue-based.
Data set [8] shares this target. The data set can be described thus: Maximum acid secretion obtained at 10e -5 M: values expressed as percentage of the maximum response to pentagastrin (n=4/6) in mouse stomach at CCKB/Gastrin receptor. It counts as functional, tissue-based.
Data set [9] has the same target. The experiment in a line: Efficiency against CCKB/Gastrin receptor for stimulation of gastric acid secretion in lumen-perfused mouse stomach: activity measured as midpoint agonist concentration-effect curve parameter. It counts as functional, tissue-based.
Data set [10] has as its target T3, Gastrin/cholecystokinin type B receptor (Mus musculus, UniProt P56481).
T3 sequence (P56481 whole entry): T2 sequence (whole entry)
The data set can be described thus: Compound was evaluated for its affinity against Cholecystokinin type B receptor in mouse cerebral cortex. It counts as tissue-based.

In data set [11] the target is T4, Cholecystokinin receptor type A (Cavia porcellus, UniProt Q63931).
T4 sequence (Q63931 whole entry): T1 sequence (whole entry)
The data set can be described thus: In vitro affinity against Cholecystokinin type A receptor in guinea pig pancreatic cell.

Data set [12] deals with T1, Cholecystokinin receptor type A (Cavia porcellus). The experiment in a line: Compound was evaluated for its affinity at Cholecystokinin type A receptor in Guinea-Pig gall bladder. Format: tissue-based.
For data set [13] the target is unchanged. The data set can be described thus: Compound was evaluated for its affinity at Cholecystokinin type A receptor in Guinea-Pig gallbladder; inactive at the limits of solubility, usually 10e-4 M.
Data set [14] has the same target. The experiment in a line: Compound was evaluated for its affinity at Cholecystokinin type A receptor in Guinea-Pig gall bladder; inactive at 10e-4 M. It counts as tissue-based.

Calls of active or inactive are those of the source. The rule behind the calls is not given here. Residues, ends and D or L forms follow the SMILES beside them. *: point of attachment. Boc = CC(C)(C)OC(=O)*

As for `CN1C(=O)[C@@H](NC(=O)c2cc3ccccc3[nH]2)N=C(c2ccccc2)c2ccccc21` [DEVAZEPIDE], the logD in data set [1] is on record as 4.16; in data set [2], 4.1.
In the case of `NS(=O)(=O)c1ccc(CCNC(=O)[C@H](CC(=O)O)NS(=O)(=O)c2ccc3ccccc3c2)cc1`, in [3], the pKB was 5.
Same read-out and setting: the figure for `COc1cc2cc(S(=O)(=O)N[C@@H](CC(=O)O)C(=O)NCCc3ccccc3)ccc2c(Cl)c1OC` is 6.2.
Consider `COc1ccc(S(=O)(=O)N[C@@H](CC(=O)O)C(=O)NCCc2ccccc2)cc1`, for which the pKB result in data set [4] was “inactive”.
As to `COc1ccc(CCNC(=O)[C@H](CC(=O)O)NS(=O)(=O)c2ccc3ccccc3c2)cc1`, the pKB in data set [3] was determined as 6.
In turn, `O=C(O)C[C@H](NS(=O)(=O)c1ccc(Cl)c(Cl)c1)C(=O)NCCc1ccccc1` gave a negative-log KB (pKB) in [3] of 5.8.
For the compound `O=C(O)C[C@H](NS(=O)(=O)Cc1ccccc1)C(=O)NCCc1ccccc1`, the pKB entry in data set [4] is “inactive”.
`O=C(O)C[C@H](NC(=O)c1ccc2ccccc2c1)C(=O)NCCc1ccccc1`: the pKB in data set [5] worked out at 5.6. The Max response result in data set [6] was “inactive”. Moreover, the “p[A50]” value in data set [7] is “inactive”.
Turning to `O=C(O)C[C@H](NS(=O)(=O)c1cccc2ccccc12)C(=O)NCCc1ccccc1`, in [4], the pKB entry was “inactive”. In [6], the Max response entry was “inactive”. The “p[A50]” value in [7] is “inactive”.
With `NC(=O)[C@H](Cc1ccccc1)NC(=O)[C@H](CC(=O)O)NS(=O)(=O)c1cccc2ccccc12`, the pKB entry in data set [4] is “inactive”. The compound also had a Max response in data set [8] of 30%. The compound also displayed a p[A50] in data set [9] of 4.6.
Take `Cc1ccc(S(=O)(=O)N[C@@H](CC(=O)O)C(=O)NCCc2ccccc2)cc1`: the pKB entry in [4] is “inactive”.
`O=C(O)C[C@H](NS(=O)(=O)c1ccc2ccccc2c1)C(=O)NCCc1ccccc1`: the logD in data set [1] and in [2] was -0.91 each time. The inhibition constant Ki in data set [10] is 69.2 µM; in data set [11], 355 nM. Moreover, the pKB in data set [4] amounted to 6.5. Further, the Max response result in [6] is “inactive”. In addition, the “p[A50]” value in data set [7] is “inactive”.
For `O=C(O)CC[C@@H](NS(=O)(=O)c1ccc2ccccc2c1)C(=O)NCCc1ccccc1`, in data set [4], the pKB result was “inactive”.
Regarding `O=C(O)C[C@H](NS(=O)(=O)CCCc1ccccc1)C(=O)NCCc1ccccc1`, the pKB entry in [4] was “inactive”.
`O=C(O)CC[C@H](NS(=O)(=O)c1ccc2ccccc2c1)C(=O)NCCc1ccccc1` gave a pKB in data set [3] of 6.1.
In data set [3], `O=C(O)C[C@H](NS(=O)(=O)/C=C/c1ccccc1)C(=O)NCCc1ccccc1` came in with a pKB of 6.3.
`O=C(O)C[C@H](NS(=O)(=O)Cc1ccc2ccccc2c1)C(=O)NCCc1ccccc1`: the negative-log KB (pKB) in [3] was found to be 5.4.
In data set [3], `O=C(O)C[C@H](NS(=O)(=O)c1ccc2ccccc2c1)C(=O)NCCCc1ccccc1` gave a pKB of 7.
`CC(C)C[C@H](NC(=O)[C@H](Cc1c[nH]c2ccccc12)NC(=O)OC(C)(C)C)C(=O)N[C@@H](CC(=O)O)C(=O)N[C@@H](Cc1ccccc1)C(N)=O` (Boc-WLDF-NH2): in [12], the pKB was 5.1. In [8], this compound had a Max response of 100%. The p[A50] in data set [9] worked out at 8.6.
Turning to `O=C(O)C[C@H](NS(=O)(=O)CCc1ccccc1)C(=O)NCCc1ccccc1`, in [3], the pKB turned out to be 5.5.
Take `CC(C)(C)OC(=O)N[C@@H](CC(=O)O)C(=O)NCCc1ccccc1`: the pKB entry in [13] is “inactive”. The Max response entry in data set [6] was “inactive”. Further, in data set [7], the “p[A50]” value is “inactive”.
For `O=C(O)C[C@@H](NS(=O)(=O)c1ccc2ccccc2c1)C(=O)NCCc1ccccc1`, the pKB in [3] turned out to be 5.9.
`COc1ccc2cc(S(=O)(=O)N[C@@H](CC(=O)O)C(=O)NCCc3ccccc3)ccc2c1Cl` registered a negative-log KB (pKB) in [3] of 6.5.
For `NC(=O)[C@H](Cc1ccccc1)NC(=O)[C@H](CC(=O)O)NC(=O)c1ccc2ccccc2c1`, the pKB result in data set [4] is “inactive”. Moreover, the Max response in data set [8] amounted to 100%. This compound also displayed a p[A50] in [9] of 5.
For the compound `O=C(O)C[C@H](NS(=O)(=O)c1ccccc1)C(=O)NCCc1ccccc1`, the pKB entry in data set [4] is “inactive”.
The compound `COc1ccc2cc(S(=O)(=O)N[C@@H](CC(=O)O)C(=O)NCCc3ccccc3)ccc2c1` came in with a pKB in [3] of 6.6.
As for `NC(=O)[C@H](Cc1ccccc1)NC(=O)[C@H](CC(=O)O)NS(=O)(=O)c1ccc2ccccc2c1`, in data set [4], the pKB result is “inactive”. This compound also displayed a Max response in data set [8] of 96%. In [9], this compound came in with a p[A50] of 5.6.
Consider `CC(C)(C)OC(=O)N[C@@H](CC(=O)O)C(=O)N[C@@H](Cc1ccccc1)C(N)=O` (Boc-Asp-Phe-NH2), for which the pKB entry in data set [14] is “inactive”. Also, the Max response in data set [8] turned out to be 100%. The p[A50] in data set [9] was 5.7.
Compound `O=C(O)C[C@H](NS(=O)(=O)c1ccc2ccccc2c1)C(=O)NCCc1ccc(F)cc1` yielded a negative logarithm of the KB (pKB) in [3] of 6.6.

Broadly, the logD is lipophilicity at a set pH, counting ionised and neutral species. In general, pKB refers to the KB on a negative log10 scale, so that one unit is a factor of ten. What is called Ki is the equilibrium dissociation constant of an inhibitor or competing ligand from its target.
